Results from article PMC3907537, “Evaluation of the Endothelin Receptor Antagonists Ambrisentan, Bosentan, Macitentan, and Sitaxsentan as Hepatobiliary Transporter Inhibitors and Substrates in Sandwich-Cultured Human Hepatocytes” (PLoS ONE, 2014).

System: sandwich-cultured human hepatocytes
Experiment: Effect of ERAs on endogenous glycochenodeoxycholic acid (GCDCA) distribution in sandwich-cultured human hepatocytes
Type: cell-based
Details: 24 h, mean ± standard error, n=3 human livers
Protocol: Sandwich-cultured human hepatocytes were obtained from Celsis/IVT (Baltimore, MD) or Life Technologies (Durham, NC). […] Hepatic uptake, biliary excretion and in vitro biliary clearance (Clb) were determined using the B-CLEAR® hepatocyte sandwich culture model as described by Liu et al., 1999 [34]. In this system, hepatocytes form functional bile canalicular networks while maintaining the expression and function of key uptake and efflux transporters. The canalicular system of bile pockets remains separate from the cellular culture media due to tight junctions between cells. The integrity of these tight junctions is maintained in the presence of calcium (Plus (+) buffer) while in the absence of calcium (Minus (−) buffer), these tight junctions open and release the contents of the canalicular network into the media.
Incubation solutions containing ERA (1, 10 and 100 µM) were prepared in cell culture medium. On the sixth day of culturing of the sandwich-cultured hepatocytes, cell culture medium was removed from the wells and incubation solutions containing the test ERAs were added to the cells. The cells were incubated with ERA solution for 24 h at 37°C. After the exposure, the incubation solutions were removed and the cells were rinsed with Plus (+) or Minus (−) buffer. The buffer solutions were then removed and the cells were incubated with fresh Plus (+) or Minus (−) buffer for 5 min at 37°C. Following this 5 minute incubation, the buffer solutions were collected and any remaining buffers were removed. The cells were then washed three times with ice-cold Plus (+) buffer and the plates were frozen at −80°C until processed for bioanalysis.
Study samples were stored in their original 24-well plates at −80°C until prepared for analysis. A volume of 500 µL of cell lysis solution (70∶30 methanol:water) containing 25 nM internal standard was added to each well and mixed for 20 min of mixing. The volume in each well was then transferred to a 96-well filter plate stacked on a Greiner deep well collection plate. The filter plate/collection plate was then centrifuged at 2000 rcf for 5 min. The filtrate was then evaporated to dryness under nitrogen. Samples were reconstituted in 200 µL of sample diluent (60∶40 methanol:10 mM ammonium acetate, native pH), sealed, and placed on a plate shaker for 15 min. These samples were then transferred to a Whatman 96-well 0.45 µm PVDF filter plate stacked on a Costar 3956 plate (HPLC injection plate), centrifuged at 2000 rcf for 2–3 min, and sealed with a silicon cap mat prior to LC-MS/MS analysis. d8-TCA standard spiking solutions were prepared in 50∶50 methanol:water. For a given lysate standard or control, 10 µL was added to each well of a previously frozen analytical plate. Standards representing 0.5–100 pmoles/well and QC’s at the LLQ and ULQ were prepared. These lysate standards and controls were then further processed as described above for unknown study samples. Prepared samples were filtered and analyzed by LC-MS/MS using a Shimadzu binary HPLC system (Columbia, MD) and tandem mass spectrometry using Thermo Electron TSQ® Quantum Discovery MAX™ (Waltham, MA) with an Ion Max ESI source operating in negative ion electrospray ionization mode. Results for unknowns and QCs were calculated using a standard curve based on an internal standard processing method.
Statistical comparisons across ERA treatments were performed using analysis of variance (ANOVA) with Fisher’s PLSD post hoc analysis (Statview 5.0, SAS Institute, Cary NC); statistical significance was considered to be P<0.05. All mass values were normalized to mg protein by taking the average protein mass in the taurocholate plate determined using a BCA protein assay (Pierce Biotechnology, Rockford, IL). Cellular accumulation determined in Minus (−) buffer (Accumulation Minus (−) Buffer) represents the total mass of analyte inside the hepatocyte at the end of the incubation time period. […]

Compound | GCDCA BEI (% Control) (1 µM) | GCDCA Cellular Accumulation (% Control) (1 µM) | GCDCA Medium Concentration (% Control) (1 µM) | GCDCA Total Accumulation (% Control) (1 µM) | GCDCA BEI (% Control) (10 µM) | GCDCA Cellular Accumulation (% Control) (10 µM) | GCDCA Medium Concentration (% Control) (10 µM) | GCDCA Total Accumulation (% Control) (10 µM) | GCDCA BEI (% Control) (100 µM) | GCDCA Cellular Accumulation (% Control) (100 µM) | GCDCA Medium Concentration (% Control) (100 µM) | GCDCA Total Accumulation (% Control) (100 µM)
Cc1cc2c(cc1CC(=O)c1sccc1S(=O)(=O)Nc1onc(C)c1Cl)OCO2 [sitaxsentan] | 112.0 ± 19.8 % Control | 89.8 ± 10.8 % Control | 110.0 ± 9.2 % Control | 99.3 ± 11.0 % Control | 85.7 ± 8.4 % Control | 79.4 ± 12.4 % Control | 105.0 ± 11.9 % Control | 73.8 ± 10.5 % Control | 55.5 ± 34.3 % Control | 14.5 ± 2.7 % Control | 76.5 ± 8.3 % Control | 12.4 ± 3.0 % Control
COc1ccccc1Oc1c(NS(=O)(=O)c2ccc(C(C)(C)C)cc2)nc(-c2ncccn2)nc1OCCO [bosentan] | 94.5 ± 12.4 % Control | 88.0 ± 5.9 % Control | 114.0 ± 9.9 % Control | 86.8 ± 3.5 % Control | 65.7 ± 21.7 % Control | 54.8 ± 4.4 % Control | 109.0 ± 14.7 % Control | 47.2 ± 2.3 % Control | 56.8 ± 11.9 % Control | 30.3 ± 6.7 % Control | 126.0 ± 7.9 % Control | 25.4 ± 6.0 % Control
CCCNS(=O)(=O)Nc1ncnc(OCCOc2ncc(Br)cn2)c1-c1ccc(Br)cc1 [macitentan] | 98.7 ± 14.8 % Control | 88.7 ± 0.8 % Control | 111.0 ± 9.0 % Control | 90.0 ± 4.0 % Control | 89.4 ± 14.2 % Control | 52.1 ± 2.6 % Control | 98.7 ± 10.1 % Control | 48.9 ± 0.9 % Control | 37.5 ± 21.9 % Control | 11.4 ± 3.2 % Control | 51.8 ± 7.1 % Control | 8.38 ± 1.4 % Control
COC(c1ccccc1)(c1ccccc1)[C@H](Oc1nc(C)cc(C)n1)C(=O)O [ambrisentan] | 95.1 ± 16.3 % Control | 104.0 ± 3.0 % Control | 110.0 ± 7.6 % Control | 103.0 ± 8.1 % Control | 81.3 ± 11.0 % Control | 83.6 ± 11.6 % Control | 109.0 ± 16.0 % Control | 75.7 ± 8.0 % Control | 76.0 ± 38.1 % Control | 27.6 ± 3.4 % Control | 103.0 ± 2.3 % Control | 26.3 ± 5.7 % Control
